{"source": "paper PMC12055592", "about": "“Post-symptomatic NLRP3 inhibition rescues cognitive impairment and mitigates amyloid and tau driven neurodegeneration” (Npj Dementia, 2025)", "key": {"[1]": {"tested_on": "5XFAD/Rubicon KO mice", "assay": "Brain cytokine/chemokine quantification (ECLIA) in 5XFAD/Rubicon KO mice", "assay_type": "in vivo, mouse", "conditions": "9 weeks PO QD", "protocol": "5XFAD/Rubicon KO mice received vehicle (0.5% w/v methylcellulose/0.1% w/v Tween® 80 in water) or VEN-02XX (0.01, 1, or 20 mg/kg) every day by oral gastric gavage for 9 weeks.\nBrain tissue was homogenized in PBS, pH 7.4 with 1X Halt™ protease inhibitor cocktail (Thermo Fisher Scientific, Waltham, MA) using a Bead Ruptor homogenizer (Omni International, Kennesaw, GA). Homogenates were clarified by centrifugation at 10,000 × g for 10 min. The crude homogenate was used for quantification of VEN-02XX levels, as described below. Total protein concentrations were quantified from clarified supernatants in a Pierce BCA protein assay (Thermo Fisher Scientific). Cytokine and chemokine levels were quantified using an electrochemiluminescence immunoassay (ECLIA) for IL-1β (total), TNFα, IL-6 and IP-10 (U-PLEX Custom Biomarker Group 1 (mouse) assay, Meso Scale Discovery, Rockville, MD) following the manufacturer’s instructions. Neurofilament light chain plasma levels were quantified using an enzyme-linked immunosorbent assay (ELISA) from Uman Diagnostics (CAT#: 20-8002) following the manufacturer’s instructions."}, "[2]": {"tested_on": "NLRP1", "assay": "NLRP1 in vitro selectivity assay (Normal Human Epidermal Keratinocytes, Val-boroPro, IL-1β)", "assay_type": "cell-based", "conditions": "n = 2; top concentration 50 µM", "protocol": "Normal Human Epidermal Keratinocytes pooled from juvenile donors (PromoCell, Heidelberg, Germany) were cultured in Keratinocyte Growth Medium 2 (PromoCell). Cells were seeded at 12,000 cells/well in a 96-well cell culture plate and incubated for 16 h at 37 °C with 5% CO2. The next day, the media was replaced with fresh media, and cells were pre-incubated for 60 min with VEN-02XX (top concentration 50 µM; 5-fold titration) before the addition of Val-boroPro mesylate (MedChemExpress, Monmouth Junction, NJ) at a final concentration of 7.5 µM. After a 30-h incubation at 37 °C with 5% CO2, supernatants were collected and IL-1β levels were determined in an electrochemiluminescence immunoassay (Mesoscale Discovery)."}, "[3]": {"assay": "Mouse brain pharmacokinetic study (brain-to-plasma partition)", "assay_type": "in vivo", "conditions": "male, single oral dose 20 mg/kg", "protocol": "Five groups of n = 3 male CD1 mice (weight 20–30 g, age 6–8 weeks old) were dosed by oral gavage with 20 mg/kg of VEN-02XX suspended in 0.5% w/v methylcellulose/0.1% w/v Tween 80, at a dose volume of 10 mL/kg. Food and water were available ad libitum to all animals. At a specific timepoint for each group (0.25, 1, 2, 4, and 8 h), 0.2 mL of blood was collected from the dorsal metatarsal vein and transferred into plastic micro centrifuge tubes with EDTA-K2 as anticoagulant, then animals were terminally anaesthetized with a rising concentration of CO2 gas for about 1 min, brains were collected and rinsed with cold PBS. […]\nConcentrations of VEN-02XX in plasma and brain were determined by a LC-MS/MS assay. […] Two transitions were monitored for VEN-02XX and the more sensitive transition with less interference (397.1 –> 270.1) was used for quantification.\nPharmacokinetic parameters were determined by non-compartmental analysis using WinNonLin software (Phoenix^TM, version 8.3), and the following parameters were calculated from the plasma concentrations versus time data: T1/2, Cmax, Tmax, AUCinf, AUClast. When appropriate, the brain Kp was calculated as AUClast(brain)/AUClast(plasma). Free brain partition coefficient (Kpuu) was calculated using the free fraction in plasma and brain measured in a high throughput equilibrium dialysis assay."}, "[4]": {"tested_on": "NLRC4", "assay": "NLRC4 in vitro selectivity assay (THP1-Null2 cells, Needle-Tox, IL-1β)", "assay_type": "cell-based", "conditions": "n = 2; top concentration 50 µM"}}, "data": [{"smiles": "CC(C)(O)CNc1nnc(-c2ccc(Cl)cc2C(F)(F)F)c2ccncc12", "note": "[VEN-02XX]", "values": [{"measurement": "hippocampal IL-1β (total), IL-6, IP-10 and TNFα levels", "setting": "[1]; 20 mg/kg, levels comparable to WT, lack of statistical significance", "value": "notable reduction in all measured inflammatory markers"}, {"measurement": "hippocampal IL-1β", "setting": "[1]", "value": "almost complete ablation of IL-1β within the hippocampus"}, {"measurement": "block of IL-1β release downstream of NLRP1", "setting": "[2]", "value": "inability to block IL-1β release"}, {"measurement": "Kp", "setting": "[3]; CD1, brain and plasma (total), AUClast (total drug), read-out: total brain-to-plasma partition coefficient, Kp", "value": 0.86}, {"measurement": "Kp uu", "setting": "[3]; CD1, brain and plasma (unbound), AUClast (free drug), read-out: unbound brain-to-plasma partition coefficient, Kp,uu brain", "value": 0.39}, {"measurement": "block of IL-1β release downstream of NLRC4", "setting": "[4]", "value": "inability to block IL-1β release"}]}]}
